Measured values reported in patent US5616615A, “Enaminone esters” (priority 1995, dated 1997).
Read-outs that look alike come from different tables or passages of the source.

Key:
[1] = test system: Maximal electroshock seizures; assay: MES maximal electroshock seizure test, mice ip; assay type: in vivo; conditions: for responders at 100 mg/kg / responders at 300 mg/kg / responders at 10 mg/kg: Mus musculus, ip; for responders at 100 mg/kg / responders at 10 mg/kg: read-out: MES, animals protected/tested (converted); for responders at 300 mg/kg: read-out: MES, animals protected/tested; for responders at 10 mg/kg: mice ip; for anti-MES protecting ability: Phase I
Procedure: Three tests were performed:
1. MES--Electroshock Seizure Test
(§1) Maximal electroshock seizures are elicited with a 60-cycle alternating current of 50 mA intensity (5-7 times that necessary to elicit minimal electroshock seizures) delivered via corneal electrodes for 0.2 seconds. A drop of 0.9% saline is instilled in the eye prior to application of the electrodes in order to […].

[2] = test system: Maximal electroshock seizures; assay: Phase VI oral MES test, rats; assay type: in vivo; conditions: oral; for responders at 50 mg/kg: Rattus norvegicus, read-out: MES, animals protected/tested (converted)
Text: as §1
(§2) This oral screen is designated as phase VI.

[3] = test system: Subcutaneous Pentylenetetrazol seizure; assay: sc Met subcutaneous pentylenetetrazol (Metrazol) seizure test, mice; assay type: in vivo; conditions: Mus musculus, sc, read-out: scMet, animals protected/tested (converted)
seizures = assay: Anticonvulsant evaluation (ASP phase I / overall); assay type: in vivo, mice; conditions: for minimal effective dose: Mus musculus, ip, Phase I, read-out: ASP Classification
Procedure: The first phase of the ADD Program involved performing tests on male Carworth Farms #1 mice. […] Three tests were performed:
as §1
The animal is observed for 30 minutes.

in vivo = conditions: rat, po; for Tox, animals toxic/tested: 50 mg/kg
Text: as §2

Structure (SMILES) | responders at 100 mg/kg ([1]; 0.5 h, 30 min) [%] | responders at 300 mg/kg ([1]; 0.5 h, 30 min) [%] | responders at 100 mg/kg ([1]; 4 h, 4 h) [%] | responders at 300 mg/kg ([1]; 4 h, 4 h) [%] | responders at 50 mg/kg ([2]; 0.5 h, 0.50 h) [%] | responders at 50 mg/kg ([2]; 0.25 h) [%] | responders at 50 mg/kg ([2]; 1.00 h) [%] | responders at 50 mg/kg ([2]; 2.00 h) [%] | responders at 50 mg/kg ([2]; 4.00 h) [%] | responders at 100 mg/kg ([3]; 0.5 h, 30 min) [%] | responders at 300 mg/kg ([3]; 0.5 h, 30 min) [%] | responders at 100 mg/kg ([3]; 4 h, 4 h) [%] | responders at 300 mg/kg ([3]; 4 h, 4 h) [%] | minimal effective dose (seizures) [mg/kg] | Tox, animals toxic/tested (in vivo) | also measured
O=C1C=C(Nc2ccc(C(F)(F)F)cc2)CCC1 [Compound 151] | 100 | 100 | 0 | 100 | 25 | 75 | 25 | 50 | 0 | 0 | 0 | 0 | 0 | < 100 | 0/4 | 
COC(=O)C1C(=O)C=C(NCc2ccc(F)cc2)CC1C (centres unmarked) [Compound 21] |  | 0 |  | 100 | 50 | 50 | 25 | 50 | 75 |  | 0 |  | 0 | > 100 | 0/4 | activity in Phase II evaluation ([1]; substituted benzylamines): significant activity; ED50 ([2]; Phase VI, rat): 49.3 mg/kg; activity compared with 12 (seizures; substituted benzylamines): only a slight modification in activity; TD50 (in vivo): > 230 mg/kg; selectivity ratio (in vivo): 4.7
COC(=O)C1C(=O)C=C(NCCc2ccccc2)CC1C (centres unmarked) [Compound 109] | 66.7 | 100 | 0 | 0 | 50 | 100 | 50 | 25 | 25 | 0 | 0 | 0 | 0 | < 100 | 0/4 | 
CCOC(=O)C1C(=O)C=C(Nc2ccc(C)cc2)CC1C (centres unmarked) [Compound 125] | 33.3 | 100 | 0 | 0 | 100 | 100 | 100 | 100 | 100 | 0 | 0 | 0 | 0 | < 100 | 0/4 | responders at 10 mg/kg ([1]; 0.25 h, 0.25 h): 25%; responders at 10 mg/kg ([1]; 0.5 h, 0.50 h): 0%; responders at 10 mg/kg ([1]; 1 h, 1.00 h): 25%; responders at 10 mg/kg ([1]; 2 h, 2.00 h): 0%; responders at 10 mg/kg ([1]; 4 h, 4.00 h): 0%; anti-MES protecting ability [1]: showed anti-MES protecting ability
O=C1C=C(Nc2ccc(Cl)cc2)CC1 [Compound 152, 3-(4'-Chlorophenyl)amino-2-cyclopentenone] | 33.3 | 100 | 0 | 0 | 25 | 0 | 25 | 75 | 50 | 0 | 0 | 0 | 0 | < 100 | 0/4 | 
COC(=O)C1C(=O)C=C(Nc2ccc(F)cc2)CC1C (centres unmarked) [Compound 112] | 66.7 | 100 | 0 | 100 | 100 | 100 | 100 | 100 | 100 | 0 | 0 | 0 | 0 | < 100 | 0/4 | 
CC(C)(C)c1ccc(NC2=CC(=O)CCC2)cc1 [Compound 150] | 100 | 100 | 0 | 100 | 50 | 50 | 75 | 25 | 50 | 0 | 60 | 0 | 0 | < 100 | 0/4 | 
CC1(C)CC(=O)C=C(Nc2ccc([N+](=O)[O-])cc2)C1 [Compound 138] | 33.3 | 100 | 0 | 0 | 0 | 0 | 0 | 50 | 0 | 0 | 0 | 0 | 0 | < 100 | 0/4 | 
CC1CC(=O)C=C(Nc2ccc(Cl)cc2)C1 (centres unmarked) [Compound 146, 3-[(p-Chlorophenyl)amino]-5-methyl-2-cyclohexen-1-one] | 100 | 100 | 0 | 100 | 75 | 25 | 100 | 100 | 50 | 0 | 40 | 0 | 0 | < 100 | 0/4 | 
O=C1C=C(Nc2ccc(Cl)cc2)CCC1 [Compound 147] | 100 | 100 | 0 | 100 | 100 | 75 | 50 | 25 | 25 | 0 | 0 | 0 | 0 | < 100 | 0/4 | 
CCOC(=O)C1C(=O)C=C(Nc2ccc(C(C)(C)C)cc2)CC1C (centres unmarked) [Compound 130] | 33.3 | 100 | 0 | 0 | 25 | 25 | 50 | 75 | 25 | 0 | 0 | 0 | 0 | < 100 | 0/4 | responders at 10 mg/kg ([1]; 0.25 h, 0.25 h): 100%; responders at 10 mg/kg ([1]; 0.5 h, 0.50 h): 75%; responders at 10 mg/kg ([1]; 1 h, 1.00 h): 50%; responders at 10 mg/kg ([1]; 2 h, 2.00 h): 0%; responders at 10 mg/kg ([1]; 4 h, 4.00 h): 0%; anti-MES protecting ability [1]: showed anti-MES protecting ability
CCOC(=O)C1C(=O)C=C(Nc2ccc(F)cc2)CC1C (centres unmarked) [Compound 124] | 100 | 100 | 0 | 0 | 100 | 100 | 100 | 100 | 75 | 0 | 100 | 0 | 0 | < 100 | 0/4 | responders at 300 mg/kg ([3]; 0.5 h, 30 min, second trial): 50%
CC1(C)CC(=O)C=C(Nc2ccc(C(F)(F)F)cc2)C1 [Compound 144] | 0 | 0 | 66.7 | 0 | 0 | 0 | 75 | 25 | 100 | 0 | 100 | 0 | 0 | < 100 | 0/4 | 
